The text below walks through data of patent US20210290576A1, “STRUCTURALLY MODIFIED FATTY ACIDS FOR IMPROVING GLYCEMIC CONTROL AND TREATING INFLAMMATORY BOWEL DISEASE” (NORTHSEA THERAPEUTICS B.V., priority 2018, published 2021).

Where two headings read alike, the source gives them in different places.

Assay [1] deals with ob/ob mice, T2DM rodent model. The assay can be described thus: Glucose tolerance after 21-day treatment in high-fat diet fed ob/ob mice. The assay is classed as in vivo. The following applies: 112 mg/kg once daily via diet, 21 days. The method, then:
This study was carried out to assess the effects of chronic treatment with Compound B or Compound A on glucose tolerance in a T2DM rodent model.
For assessing the effects of Compound A, ob/ob mice were fed a high-fat diet (comprising 2% cholesterol, 40% fat (containing 18% trans-fatty acids), 20% fructose) for 15 weeks starting at age 5 weeks. […] After 21 days the mice received a 2 g/kg oral glucose load. After the oral glucose load, plasma glucose was measured at multiple time points from 0-240 minutes.

Assay [2] has as its system ob/ob mice, rodent model of T2DM. The assay can be described thus: Oral glucose (2 g/kg) tolerance test after 5 weeks of treatment in ob/ob mice. The format is in vivo. The following applies: 15, 45 and 135 mg/kg bw/d. On the procedure:
Mice were fed a standard low-fat (7% w/w fat) diet. After 4-weeks, the mice were fasted for 4 hours and the effects of Compound A were assessed. Assessment of the effects of Compound A included basal levels of blood glucose, plasma insulin, HbA1c levels, and homeostatic model assessment of insulin resistance (HOMA-IR). HOMA-IR is an assessment of insulin resistance and is calculated by the following formula: fasting insulin (micro U/L)×fasting glucose […]/22.5.
After 5 weeks, an oral glucose (2 g/kg) tolerance test was performed after a 4 hour fast.

The subject of assay [3] is atherogenic lipids. The following applies: humans; cited from earlier work.
The test system of another assay is plasma insulin. The assay is described as follows: Plasma insulin at 24 h after OGTT in lean male SPD rats. The following applies: non-significant. The assay is classed as in vivo, Sprague-Dawley (SPD) rats. On the procedure:
(§1) Evaluation of the Acute Effects of Compound a and Compound B Upon Active GLP-1 wconcentrations during an oral glucose tolerance test (OGTT) and at 24 h in lean male SPD Rats
(§2) To establish the acute effects of oral administration of Compound A and Compound B upon active GLP-1 and insulin concentrations, lean (about 300 g) male Sprague-Dawley (SPD) rats were divided into groups (n=6-8) and fed 74 and 84 mg/kg body weight of Compound A or Compound B respectively, either with or without concurrent administration of a dipeptidyl peptidase 4 (DPP-4) inhibitor 60 minutes prior to an oral glucose tolerance test (OGTT) as outlined below. Parallel groups receiving either corn oil alone (corn oil+vehicle, n=10) or corn oil and a DPP-4 inhibitor (“DPP-4 i”) (corn oil+(DPP-4 i), n=10) were included as controls. The DPP-4 inhibitor was linagliptin.
(§3) A second oral dose of 74 and 84 mg/kg bodyweight of Compound A or Compound B respectively was administered at 240 minutes and ad lib feeding was initiated. A second dose of DPP-4 inhibitor was administered at 480 mins prior to lights out. Blood samples were collected at 24 h for measurement of active GLP-1 and insulin. All values are mean, figures depict mean values (SEM).

A further assay deals with active GLP-1. The assay can be described thus: Active GLP-1 during an oral glucose tolerance test (OGTT) and at 24 h in lean male SPD rats. The format is in vivo, Sprague-Dawley (SPD) rats. On the procedure:
as §1, §2, §3

The test system of assay [4] is atherogenic lipids. The note with it: APOE*3.CETP mice; cited from earlier work.

As to `CC/C=C\C/C=C\C/C=C\C/C=C\C/C=C\CCCCOC(CC)C(=O)O` (stereo not shown) [Compound A, 2-(((5Z,8Z,11Z,14Z,17Z)-icosa-5,8,11,14,17-pentaen-1-yl)oxy)butanoic acid], the “glucose tolerance compared to vehicle” value in assay [1] (2 g/kg oral glucose load) is reported as “significantly improved glucose tolerance from 15 minutes through 90 minutes”. In addition, the AUC glucose result in assay [1] (p<0.01) is “significantly reduced”. For the same molecule, the “glucose levels in oral glucose tolerance test” value in assay [2] is given as “dose-dependent response in lowering glucose levels”. For the same molecule, the atherogenic lipids result with atherogenic lipids [3] and with atherogenic lipids [4] was “significantly reduce atherogenic lipids” in each case. For the same molecule, the “increase of plasma insulin concentrations at 24 h versus corn oil+vehicle and corn oil+DPP4 inhibitor” value in the assay with plasma insulin (compound alone) and with plasma insulin (in combination with DPP4 inhibitor (linagliptin)) was 25% each time. Moreover, in the assay with active GLP-1 (in combination with DPP4 inhibitor (linagliptin), Compound A 74 mg/kg, Compound B 84 mg/kg, two oral doses), the “active GLP-1 concentrations at 24 h versus corn oil+vehicle” value is on record as “significantly (p<0.05) increased”.
For `CC#CCn1c(N2CCC[C@@H](N)C2)nc2c1c(=O)n(Cc1nc(C)c3ccccc3n1)c(=O)n2C` [DPP4 inhibitor, linagliptin, reference compound], in the assay with active GLP-1 (corn oil+DPP4 inhibitor alone), the “active GLP-1 (AUC 0-60 mins) versus corn oil alone” value was “no significant effect” and the “active GLP-1 concentrations at 24 h versus corn oil alone” value is reported as “no significant effect”.
